Source: patent US20080268535A1, “Method for Inducing the Differentiation of Human Myelogenous Leukemia Cells Into Megakarocytes or Thrombocytes” (EWHA University - Industry Collaboration Foundation, priority 2005, published 2008)

Assays:
Type in all cases: cell-based, human
HEL cells [1] = experiment: Differentiation inductivity, lineage receptor expression by FACS, HEL cells; conditions: 5 μg/ml (R)-NALPCE 5 days or 10 nM PMA 3 days
Method: HEL cells were aliquoted at a density of 3×10^5 cells per well in 6-well plates and treated separately with 5 μg/ml of (R)-NALPCE and 10 nM of 12-phorbol myristate-13-acetate (PMA) (Calbiochem.), followed by incubation for 5 and 3 days, respectively. After centrifugation (1,000 rpm, 10 min), cell pellets thus obtained were washed three times with 0.01% bovine serum albumin (BSA) in PBS and incubated with 10 μl of anti-CD61-fluorescein-5-isothiocyanate (FITC) (Dako Chemicals, Carpenteria, Calif.), 20 μl of anti-CD16-Cy-Chrome (Cy) (BD Pharmingen), 10 μl of anti-glycophorin ACD235a-phycoerythrin (PE) (Dako Chemicals, Carpenteria, Calif.), and 20 μl of anti-CD14-allophycocyanin (APC) (BD Pharmingen) in 200 μl of 0.01% bovine serum albumin (BSA)-PBS at 4° C. for 50 min with spinning so as to achieve homogenous fluorescent staining over the cells. After centrifugation (1,000 rpm, 10 min), the cell pellets thus obtained were washed three times with 0.01% bovine serum albumin (BSA) in PBS. Fluorescence was analyzed on a fluorescence-activated cell sorter (FACS) (Aria) using a Cellquest program.

HEL cells [2] = experiment: Cell differentiation of HEL cells, optical microscopy; conditions: 5 μg/ml (R)-NALPCE, 10 nmole PMA or 50 ng/ml TPO, 5 days
Method: HEL cells were aliquoted at a density of 3×10^5 cells per well in 6-well plates and treated with 5 μg/ml of (R)-NALPCE, 10 nmole of PMA, or 50 ng/ml of TPO, followed by incubation in a day-dependent manner for 5 days. They were observed under an optical microscope with 200× magnification.

K562 cells [3] = experiment: Cell differentiation of K562 cells on OP9 cells, optical microscopy
Method: A stromal line of OP9 cells derived from […] was aliquoted at a density of 1×10^5 cells in 6-well plates and incubated for 24 hrs. After the OP9 cells were uniformly attached onto the bottom of the plates, K562 cells were layered at a density of 1×10^5 cells on the OP9 cells in 6-well plates. The cells were treated with 40 μg/ml of (R)-NALPCE, or 500 pmole, 10 nmole or 50 nmole of PMA before incubation for 5 days. They were observed under an optical microscope with 200× magnification.

K562 cells [4] = experiment: Production of thrombocytes, K562 cells on OP9 cells, optical microscopy; conditions: 40 μg/ml
Method: An experiment was conducted in a manner similar to that of Example 7. OP9 cells were aliquoted at a density of 1×10^5 cells per well in 6-well plates and incubated for 24 hrs. After OP9 cells were uniformly attached onto the bottom of the plates, K562 cells were layered at a density of 1×10^5 cells per well over the OP cells in the 6-well plates. Treatment with 40 μg/ml of (R)-NALPCE was conducted before incubation in a day-dependent manner for 5 days. They were observed under an optical microscope with 200× magnification.

HEL cells [5] = experiment: Megakaryocyte differentiation, CD41/CD61 expression over time by FACS, HEL cells; conditions: 5 μg/ml, 5 days
Method: HEL cells were aliquoted at a density of 3×10^5 cells per well in 6-well plates and treated with 5 μg/ml of (R)-NALPCE, followed by incubation for 5 days. After centrifugation (1,000 rpm, 5 min), the cell pellets thus obtained were washed three times with 0.01% bovine serum albumin (BSA) in PBS. The cells were incubated with 10 μl of anti-CD41-fluorescein-5-isothiocyanate (FITC) (Dako Chemicals, Carpenteria, Calif.) or 20 μl of anti-CD61-phycoerythrin (PE) (BD Pharmingen) in 200 μl 0.01% bovine serum albumin (BSA)-PBS at 4° C. for 50 min with spinning to realize homogeneous fluorescent staining. After centrifugation (1,000 rpm, 10 min), the cell pellets thus obtained were rinsed three times with 0.01% bovine serum albumin (BSA)-PBS. Fluorescence was analyzed on a fluorescence-activated cell sorter (FACS) (Aria) using a Cellquest program.

K562 cells [6] = experiment: MTT cytotoxicity assay of (R)-NALPCE; conditions: 10 to 50 μg/ml, 48 hrs incubation
Method: In order to examine whether the compound (R)-NALPCE is toxic to cells, MTT (3-[4,5-dimethylthiazol-2-yl]-2,5-diphenyltetrazolium bromide) assay was conducted in K562 cells which are the leukemia cells derived from human bone marrow. These cells were aliquoted at a density of 4×10^4 cells per well in 96-well plates and treated with various concentrations of (R)-NALPCE, followed by incubation for 48 hrs. Thereafter, an MTT solution was added in an amount of 20 μl to each well. Incubation at 37° C. for 4 hrs, treatment with a 20% sodium dodecyl sulfate (SDS) solution (in an equivolume mixture of N,N-dimethylformamide and distilled water), and incubation at 37° C. for 16 hrs were sequentially conducted in that order before the absorbance at 570 nm was read using an ELISA reader (Bio-Tek Instrument, Winiiski, Vt.). The assay was conducted in triplicate.

K562 cells [7] = experiment: Megakaryocyte differentiation, CD41/CD61 expression over time by FACS, K562 cells; conditions: 40 μg/ml, 4 days
Method: K562 cells were aliquoted at a density of 2×10^5 cells per well in 6-well plates and treated with 40 μg/ml of (R)-NALPCE, followed by incubation for 4 days. After centrifugation (1,000 rpm, 5 min), the cell pellets thus obtained were washed three times with 0.01% bovine serum albumin (BSA) in PBS. Incubation with 10 μl of anti-CD41-fluorescein-5-isothiocyanate (FITC) (Dako Chemicals, Carpenteria, Calif.) or 20 μl of anti-CD61-phycoerythrin (PE) (BD Pharmingen) in 200 μl of 0.01% bovine serum albumin (BSA)-PBS was conducted at 4° C. for 50 min with spinning to realize homogeneous fluorescent staining. Following centrifugation (1,000 rpm, 10 min), the cell pellets thus obtained were rinsed three times with 0.01% bovine serum albumin (BSA) in PBS. Fluorescence was analyzed on a fluorescence-activated cell sorter (FACS) (Aria) using a Cellquest program.

With `CCCCCCCCCCCCCCCCCC(=O)NC(COP(=O)([O-])OCC[N+](C)(C)C)C(=O)OC` [(R)-NALPCE, N-steroyl-O-phosphocholine-D-serine methyl ester] the “expression of CD61, CD235a, CD16 and CD14 receptors” value (HEL cells [1]) was “CD61 and CD16 were specifically expressed”, the “cell morphology (optical microscope)” value (HEL cells [2]) was “increase in size in a day-dependent manner” and the “production or secretion of thrombocytes by differentiated megakaryocytes” value (K562 cells [3]; (R)-NALPCE with OP9 cells, PMA treatment) was “released a lot of thrombocytes”. The “cell morphology (optical microscope)” value (K562 cells [3]; K562 cells on OP9 cells, 40 μg/ml, 5 days) was “increased in size in a time-dependent manner, and anucleate cells such as thrombocytes were observed”, the “cell size (optical microscope)” value (K562 cells [4]; 5 days) was “increased in size in a time-dependent manner” and the “appearance of anucleate cells” value (K562 cells [4]; from Day 4 after the treatment) was “anucleate cells, such as thrombocytes, were observed”. For the same compound, the “CD41 and CD61 expression rate” value (HEL cells [5]) was “increase in expression rate in a day-dependent manner”, the “cytotoxicity on K562 cells (MTT)” value (K562 cells [6]) was “does not exert cytotoxicity” and the “CD41 and CD61 expression rate” value (K562 cells [7]) was “increase in expression rate in a time-dependent manner”.
